Test results: PubChem BioAssay AID330 (DTP/NCI, 2004)
Where “and” joins values, the source holds several entries; their conditions need not be identical. Identical values can stand only once. Toxic doses and inconclusive results are not listed. The calls were made as follows: active = survival T/C of 150% or more; inactive = T/C below 125% in these data.

Test system: P388 leukemia ip, CD2F1 mice, survival T/C
Assay: NCI In Vivo Anticancer Drug Screen. Data for tumor model P388 Leukemia (intraperitoneal) in CD2F1 (CDF1) mice
Conditions: endpoint: median survival time, higher = longer survival
Summary of the method: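 Mice carrying the transplanted tumor received test compound or vehicle. Survival was recorded in each group, and the value is the treated-group measurement divided by that of the vehicle-treated control group.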

[1] = dose: 50.0 mg/kg/injection, schedule: Q01DX009 (ip), vehicle: Klucel (hydroxypropylcellulose) (HPC)
[2] = dose: 100.0 mg/kg/injection, schedule: Q01DX009 (ip), vehicle: Klucel (hydroxypropylcellulose) (HPC)
[3] = dose: 200.0 mg/kg/injection, schedule: Q01DX009 (ip), vehicle: Klucel (hydroxypropylcellulose) (HPC)
[4] = dose: 50.0 mg/kg/injection, schedule: Q01DX005 (ip), vehicle: Klucel (hydroxypropylcellulose) (HPC)
[5] = dose: 100.0 mg/kg/injection, schedule: Q01DX005 (ip), vehicle: Klucel (hydroxypropylcellulose) (HPC)
[6] = dose: 200.0 mg/kg/injection, schedule: Q01DX005 (ip), vehicle: Klucel (hydroxypropylcellulose) (HPC)
[7] = dose: 50.0 mg/kg/injection, schedule: Q01DX009 (ip), vehicle: saline with Tween-80
[8] = dose: 100.0 mg/kg/injection, schedule: Q01DX001 (ip), vehicle: Klucel (hydroxypropylcellulose) (HPC)
[9] = dose: 6.25 mg/kg/injection, schedule: Q01DX009 (ip), vehicle: saline
[10] = dose: 12.5 mg/kg/injection, schedule: Q01DX009 (ip), vehicle: saline
[11] = dose: 25.0 mg/kg/injection, schedule: Q01DX009 (ip), vehicle: saline
[12] = dose: 50.0 mg/kg/injection, schedule: Q01DX005 (ip), vehicle: saline with Tween-80
[13] = dose: 100.0 mg/kg/injection, schedule: Q01DX005 (ip), vehicle: saline with Tween-80
[14] = dose: 200.0 mg/kg/injection, schedule: Q01DX005 (ip), vehicle: saline with Tween-80
[15] = dose: 100.0 mg/kg/injection, schedule: Q01DX009 (ip), vehicle: saline with Tween-80
[16] = dose: 200.0 mg/kg/injection, schedule: Q01DX009 (ip), vehicle: saline with Tween-80

Measured: T/C

CN(C)c1nc(=O)c2ccccc2o1
inactive: dose: 15.0 mg/kg/injection, schedule: Q01DX005 (ip), vehicle: saline 100 % of control | dose: 30.0 mg/kg/injection, schedule: Q01DX005 (ip), vehicle: saline 97 % of control | dose: 60.0 mg/kg/injection, schedule: Q01DX005 (ip), vehicle: saline 101 % of control and 95 % of control

CC(=O)/C=C/c1ccc([N+](=O)[O-])cc1
inactive: [1] 100 % of control | [2] 90 % of control | dose: 100.0 mg/kg/injection, schedule: Q04DX003 (ip), vehicle: Klucel (hydroxypropylcellulose) (HPC) 91 % of control | [3] 98 % of control | dose: 200.0 mg/kg/injection, schedule: Q04DX003 (ip), vehicle: Klucel (hydroxypropylcellulose) (HPC) 89 % of control | dose: 400.0 mg/kg/injection, schedule: Q04DX003 (ip), vehicle: Klucel (hydroxypropylcellulose) (HPC) 97 % of control

c1nc(N2CCCCC2)c2[nH]cnc2n1
inactive: [4] 109 % of control | [5] 104 % of control

OC(/C=C/CC(O)(C(F)(F)F)C(F)(F)F)(C(F)(F)F)C(F)(F)F
inactive: dose: 50.0 mg/kg/injection, schedule: Q01DX009 (ip), vehicle: saline 100 % of control | dose: 100.0 mg/kg/injection, schedule: Q01DX009 (ip), vehicle: saline 98 % of control

Cc1ccc(C2c3c(c4ccccc4n3C(=O)c3ccccc3)C(=O)NN2C(=O)c2ccccc2)cc1 (stereo not drawn)
inactive: [4] 97 % of control | [5] 90 % of control | [6] 95 % of control

O=c1[nH]nc(-c2ccc([N+](=O)[O-])o2)o1
inactive: dose: 6.25 mg/kg/injection, schedule: Q01DX009 (ip), vehicle: saline with Tween-80 101 % of control | dose: 12.5 mg/kg/injection, schedule: Q01DX009 (ip), vehicle: saline with Tween-80 106 % of control | dose: 25.0 mg/kg/injection, schedule: Q01DX009 (ip), vehicle: saline with Tween-80 97 % of control | [7] 99 % of control

O=[N+]([O-])c1ccc(SSc2ccc([N+](=O)[O-])s2)s1
inactive: [8] 106 % of control

CCC1(O)C(=O)OCc2c1cc1n(c2=O)Cc2c-1nc1ccccc1c2OC (stereo not drawn)
inactive: [9] 103 % of control | [10] 100 % of control | [11] 108 % of control

OCc1ccccc1
inactive: dose: 0.12 % in 0.5 ml injection vol, schedule: Q01DX009 (ip), vehicle: water 94 % of control | dose: 0.25 % in 0.5 ml injection vol, schedule: Q01DX009 (ip), vehicle: water 94 % of control | dose: 0.5 % in 0.5 ml injection vol, schedule: Q01DX009 (ip), vehicle: water 100 % of control and 103 % of control | dose: 1.0 % in 0.5 ml injection vol, schedule: Q01DX009 (ip), vehicle: water 95 % of control and 98 % of control | dose: 2.0 % in 0.5 ml injection vol, schedule: Q01DX009 (ip), vehicle: water 98 % of control

O=C1NC(=O)N2CC(CBr)OC2C1c1ccccc1 (stereo not drawn)
inactive: [1] 101 % of control | [2] 100 % of control | [3] 100 % of control

CCOc1ccc2nc(NN=O)sc2c1
inactive: dose: 1.56 mg/kg/injection, schedule: Q01DX009 (ip), vehicle: water 100 % of control | dose: 3.12 mg/kg/injection, schedule: Q01DX009 (ip), vehicle: water 100 % of control and 95 % of control | dose: 6.25 mg/kg/injection, schedule: Q01DX009 (ip), vehicle: water 101 % of control and 98 % of control | dose: 12.5 mg/kg/injection, schedule: Q01DX009 (ip), vehicle: water 100 % of control and 104 % of control | dose: 25.0 mg/kg/injection, schedule: Q01DX009 (ip), vehicle: water 100 % of control and 101 % of control | dose: 50.0 mg/kg/injection, schedule: Q01DX009 (ip), vehicle: water 104 % of control

O=C1C=CC2(C=C1)OCC(=O)O2
inactive: dose: 60.0 mg/kg/injection, schedule: Q01DX005 (ip), vehicle: saline with Tween-80 100 % of control | dose: 120.0 mg/kg/injection, schedule: Q01DX005 (ip), vehicle: saline with Tween-80 97 % of control | dose: 240.0 mg/kg/injection, schedule: Q01DX005 (ip), vehicle: saline with Tween-80 96 % of control

COC(=O)NN(C(=O)OC)C12CCCCC1N(C(=O)OC)N(C(=O)OC)c1ccccc12 (stereo not drawn)
inactive: [8] 103 % of control | dose: 200.0 mg/kg/injection, schedule: Q01DX001 (ip), vehicle: Klucel (hydroxypropylcellulose) (HPC) 98 % of control | dose: 400.0 mg/kg/injection, schedule: Q01DX001 (ip), vehicle: Klucel (hydroxypropylcellulose) (HPC) 100 % of control

O=C1CC2COc3ccc(O)cc3C2=NN1c1ccccc1 (stereo not drawn)
inactive: [12] 94 % of control | [13] 98 % of control | [14] 94 % of control

CNC(=O)N(CCO)/N=C\c1ccc([N+](=O)[O-])o1
inactive: [4] 99 % of control | [5] 97 % of control | [6] 103 % of control

NC(=S)C(Cl)(Cl)Cl
inactive: dose: 50.0 mg/kg/injection, schedule: Q01DX005 (ip), vehicle: saline + Tween-80 + alcohol 116 % of control | dose: 100.0 mg/kg/injection, schedule: Q01DX005 (ip), vehicle: saline + Tween-80 + alcohol 119 % of control | dose: 200.0 mg/kg/injection, schedule: Q01DX005 (ip), vehicle: saline + Tween-80 + alcohol 113 % of control

c1ccc(CSc2nnc3c4ccccc4c4ccccc4c3n2)cc1
inactive: [7] 100 % of control | [15] 102 % of control | [16] 101 % of control

O=S(/N=C/c1ccccc1)c1ccc(Cl)cc1 (stereo not drawn)
inactive: [7] 96 % of control | [15] 89 % of control

CNC1C(O)C2Oc3c(cc(O)c4c3C(=O)c3cc5c(c(O)c3C4=O)C(OC3OC(C)C(OC)C(C)(OC)C3OC)CC(C)(O)C5)C(C)(O2)C1O (stereo not drawn)
inactive: dose: 2.06 mg/kg/injection, schedule: Q04DX003 (ip), vehicle: other 97 % of control | dose: 4.12 mg/kg/injection, schedule: Q04DX003 (ip), vehicle: other 102 % of control | dose: 8.25 mg/kg/injection, schedule: Q04DX003 (ip), vehicle: other 103 % of control | dose: 16.5 mg/kg/injection, schedule: Q04DX003 (ip), vehicle: other 124 % of control | dose: 33.0 mg/kg/injection, schedule: Q04DX003 (ip), vehicle: other 124 % of control

CCN(CC)CCOc1ccc(C2=C(c3ccc(OC)cc3)Cc3cc(OC)ccc32)cc1
inactive: dose: 6.25 mg/kg/injection, schedule: Q01DX005 (ip), vehicle: saline with Tween-80 101 % of control | dose: 12.5 mg/kg/injection, schedule: Q01DX005 (ip), vehicle: saline with Tween-80 101 % of control | dose: 25.0 mg/kg/injection, schedule: Q01DX005 (ip), vehicle: saline with Tween-80 105 % of control | [12] 106 % of control | [13] 106 % of control | [14] 102 % of control

O=C(N=C(N=C(c1ccccc1)N1CCOCC1)c1ccccc1)c1ccccc1
inactive: [7] 106 % of control | [15] 102 % of control | [16] 103 % of control

Cc1cc(C(=O)O)sn1
inactive: dose: 3.12 mg/kg/injection, schedule: Q01DX009 (ip), vehicle: saline 100 % of control | [9] 100 % of control | [10] 96 % of control | [11] 100 % of control

Cc1c([N+](=O)[O-])oc2c1C(=O)c1ccccc1C2=O
inactive: dose: 15.0 mg/kg/injection, schedule: Q01DX005 (ip), vehicle: Klucel (hydroxypropylcellulose) (HPC) 95 % of control | dose: 30.0 mg/kg/injection, schedule: Q01DX005 (ip), vehicle: Klucel (hydroxypropylcellulose) (HPC) 95 % of control | dose: 60.0 mg/kg/injection, schedule: Q01DX005 (ip), vehicle: Klucel (hydroxypropylcellulose) (HPC) 95 % of control and 96 % of control | dose: 120.0 mg/kg/injection, schedule: Q01DX005 (ip), vehicle: Klucel (hydroxypropylcellulose) (HPC) 102 % of control

O=C1CCCCC2CC2C1=O (stereo not drawn) (tested in a mixture with another compound)
inactive: dose: 50.0 mg/kg/injection, schedule: Q01DX009 (ip), vehicle: other 101 % of control | dose: 100.0 mg/kg/injection, schedule: Q01DX009 (ip), vehicle: other 100 % of control | dose: 200.0 mg/kg/injection, schedule: Q01DX009 (ip), vehicle: other 108 % of control
